Test results: the NIST ThermoML archive (doi:10.1016/j.jct.2016.10.033)

Test: refractive index (Na D-line) (dimensionless); xn = mol fraction of the nth substance listed
Details: 103 kPa, Liquid, Standard Abbe refractometry

CO[Si](C)(C)OC [dimethoxydimethylsilane] + CO[Si](C)(OC)c1ccccc1
refractive index
Details	298.15 K	303.15 K	308.15 K	313.15 K	318.15 K
x2 = 0	1.36816	1.36559	1.36297	1.36035	1.35771
x2 = 0.0501	1.37551	1.37295	1.37035	1.36774	1.36513
x2 = 0.1001	1.3826	1.38005	1.37748	1.37492	1.37233
x2 = 0.15	1.38945	1.38696	1.38442	1.3819	1.37936
x2 = 0.2	1.3961	1.39364	1.39111	1.38864	1.38612
x2 = 0.25	1.40247	1.40001	1.39748	1.39498	1.39248
x2 = 0.2999	1.40864	1.40619	1.40369	1.40119	1.3987
x2 = 0.3499	1.41459	1.41213	1.40966	1.40726	1.4048
x2 = 0.4001	1.42041	1.41798	1.41551	1.41306	1.41059
x2 = 0.4501	1.42603	1.42366	1.42126	1.41886	1.41642
x2 = 0.5001	1.43147	1.42909	1.42667	1.42426	1.42184
x2 = 0.55	1.43672	1.43435	1.43195	1.42958	1.42718
x2 = 0.6	1.44182	1.43946	1.43707	1.43469	1.43232
x2 = 0.6499	1.44673	1.44437	1.44197	1.43957	1.43718
x2 = 0.6999	1.45155	1.4492	1.44681	1.44442	1.44204
x2 = 0.75	1.45621	1.45386	1.45148	1.44913	1.44677
x2 = 0.7997	1.46072	1.45837	1.456	1.45364	1.45125
x2 = 0.8499	1.46514	1.46278	1.46042	1.45805	1.45569
x2 = 0.8999	1.46939	1.46704	1.46469	1.46234	1.45999
x2 = 0.95	1.47356	1.47121	1.46886	1.46651	1.46417

C=C[Si](OC)(OC)OC [trimethoxy(vinyl)silane] + CO[Si](C)(OC)c1ccccc1
refractive index
Details	298.15 K	303.15 K	308.15 K	313.15 K	318.15 K
x2 = 0	1.39022	1.38775	1.38535	1.3829	1.38046
x2 = 0.05	1.3954	1.39299	1.39056	1.38815	1.38572
x2 = 0.1	1.40052	1.39811	1.39569	1.39329	1.39082
x2 = 0.1499	1.40552	1.40314	1.40073	1.3983	1.39588
x2 = 0.2	1.41045	1.40807	1.40568	1.40327	1.40083
x2 = 0.2501	1.41527	1.41288	1.41047	1.40809	1.40568
x2 = 0.2999	1.41998	1.41762	1.41524	1.41284	1.41043
x2 = 0.35	1.42465	1.42228	1.41987	1.4175	1.4151
x2 = 0.4001	1.42919	1.42683	1.42444	1.42208	1.41967
x2 = 0.4501	1.43364	1.43129	1.42891	1.42653	1.42413
x2 = 0.5	1.43793	1.43559	1.43321	1.43084	1.42843
x2 = 0.5499	1.44232	1.43996	1.43759	1.4352	1.43283
x2 = 0.6	1.44653	1.44418	1.44182	1.43943	1.43706
x2 = 0.6499	1.45067	1.44831	1.44594	1.44356	1.4412
x2 = 0.7	1.45459	1.45224	1.4499	1.44754	1.44517
x2 = 0.75	1.45871	1.45636	1.454	1.45165	1.44929
x2 = 0.8001	1.46249	1.46015	1.45778	1.45542	1.45307
x2 = 0.8498	1.46647	1.46413	1.46178	1.45942	1.45707
x2 = 0.8999	1.47026	1.46791	1.46557	1.46321	1.46087
x2 = 0.9499	1.47397	1.47163	1.46928	1.46693	1.46458

CCO[Si](C)(C)OCC [dimethyldiethoxysilane] + CO[Si](C)(OC)c1ccccc1
refractive index
Details	298.15 K	303.15 K	308.15 K	313.15 K	318.15 K
x2 = 0	1.38045	1.37791	1.37532	1.37275	1.37015
x2 = 0.05	1.38569	1.38315	1.38057	1.37799	1.37541
x2 = 0.1001	1.39089	1.38836	1.38582	1.38325	1.38071
x2 = 0.1499	1.39601	1.39351	1.39097	1.38844	1.38592
x2 = 0.2002	1.40114	1.39865	1.39614	1.39362	1.39108
x2 = 0.2501	1.40622	1.40372	1.40124	1.39874	1.39625
x2 = 0.3001	1.41123	1.40874	1.40626	1.40376	1.40129
x2 = 0.3499	1.41623	1.41376	1.41131	1.40883	1.4064
x2 = 0.4	1.42117	1.41873	1.41626	1.41378	1.41133
x2 = 0.4499	1.42609	1.42366	1.42126	1.41881	1.41639
x2 = 0.5	1.43096	1.42854	1.42613	1.42369	1.42133
x2 = 0.55	1.43582	1.4334	1.43098	1.42856	1.42618
x2 = 0.5999	1.44058	1.43819	1.43579	1.43336	1.43098
x2 = 0.65	1.44535	1.44296	1.44058	1.43819	1.43582
x2 = 0.6999	1.45008	1.4477	1.44531	1.4429	1.44055
x2 = 0.75	1.45489	1.45239	1.45002	1.44764	1.44527
x2 = 0.8	1.4594	1.45703	1.45464	1.45227	1.44991
x2 = 0.8498	1.464	1.46165	1.45929	1.45692	1.45455
x2 = 0.9	1.46859	1.46623	1.46388	1.46153	1.45918
x2 = 0.95	1.47312	1.47078	1.46843	1.46607	1.46372
